*1 amine or outer side, *2 acyl side, *3 side chain or, on linkers, in order; H or OH if unused. Where a SMILES comes first, the peptide text is derived from it. Bridges are numbered along the chain shown (N, C = ends). [ ]: non-standard residue; d: D form. X34 = O=C(C[C@@H](Cc1ccccc1)C(=O)[*:2])C12CC(CN[*:1])(C1)C2; NMeNva(5-imidazol-1-yl) = CN[C@@H](CCCn1ccnc1)C(=O)O; Phe(4-guanidino) = N=C(N)Nc1ccc(C[C@H](N)C(=O)O)cc1; Ala(pyrimidin-5-yl) = N[C@@H](Cc1cncnc1)C(=O)O; NMe3Pal(5-F) = CN[C@@H](Cc1cncc(F)c1)C(=O)O; NMePhe(3-Me) = CN[C@@H](Cc1cccc(C)c1)C(=O)O; Phe(4-CH2NH2) = NCc1ccc(C[C@H](N)C(=O)O)cc1; X14 = O=C([C@H](Cc1c(F)cncc1F)N[*:1])[*:2]; X20 = CN([C@@H](Cc1cnco1)C(=O)[*:2])[*:1]; X24 = O=C([C@H](Cc1ccncc1Cl)N[*:1])[*:2]; X26 = Cn1cc(C[C@H](N[*:1])C(=O)[*:2])cn1; X11 = CC(C)(F)CC[C@H](N[*:1])C(=O)[*:2]; Nle(5,5-F2) = CC(F)(F)CC[C@H](N)C(=O)O; X32 = CS(=O)(=O)CCCN(CC(=O)[*:2])[*:1]; 1Nal = N[C@@H](Cc1cccc2ccccc12)C(=O)O; X35 = CN([C@@H](CCCF)C(=O)[*:2])[*:1]; Ala(cPent) = N[C@@H](CC1CCCC1)C(=O)O; Phe(2-F) = N[C@@H](Cc1ccccc1F)C(=O)O; X31 = O=C([C@H](CCC1CC1)N[*:1])[*:2]; NMe3Pal = CN[C@@H](Cc1cccnc1)C(=O)O; X1 = O=C(C12CC(CN[*:1])(C1)C2)[*:2]; Ala(cPr) = N[C@@H](CC1CC1)C(=O)O; NMeF = CN[C@@H](Cc1ccccc1)C(=O)O; PhLac = O=C(O)[C@@H](O)Cc1ccccc1; 3Pal = N[C@@H](Cc1cccnc1)C(=O)O; d(αMeC) = C[C@@](N)(CS)C(=O)O; Ahp(2) = CCCCC[C@H](N)C(=O)O; Cba = N[C@@H](CC1CCC1)C(=O)O; hLeu = CC(C)CC[C@H](N)C(=O)O; NMeAbu = CC[C@H](NC)C(=O)O; αMeC = C[C@](N)(CS)C(=O)O; NMeA = CN[C@@H](C)C(=O)O; Nle = CCCC[C@H](N)C(=O)O
Biological target: phosphorylation levels of ERK1/2 in AsPC-1 (homozygous KRAS-G12D) cells (Homo sapiens, UniProt P01116, G12D)
Experiment: Cellular phospho-ERK assay in AsPC-1 cells (Alpha Screen), assay medium without fetal bovine serum;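 note: signal taken as phospho-ERK over total ERK per well, both detected in one multiplex bead assay, EC50 from four-parameter logistic fit of dose-response curves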
Assay type: cell-based
Settings: phospho-ERK AlphaScreen, 18 h

phosphorylation levels of ERK1/2 in AsPC-1 (homozygous KRAS-G12D) cells, sequence (P01116 1-186 G12D): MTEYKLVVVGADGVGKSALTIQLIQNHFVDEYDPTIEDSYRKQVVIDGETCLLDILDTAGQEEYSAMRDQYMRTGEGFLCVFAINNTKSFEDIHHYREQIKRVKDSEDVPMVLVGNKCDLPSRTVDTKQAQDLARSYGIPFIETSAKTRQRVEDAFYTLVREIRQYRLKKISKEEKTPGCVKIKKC

SMILES	EC50 [µM]
CCCC[C@@H]1NC(=O)[C@H](Cc2cccnc2)NC(=O)[C@H](CC)N(C)C(=O)[C@H](Cc2ccccc2)OC(=O)C23CC(CNC(=O)[C@H](Cc4cccnc4)N(C)C(=O)[C@H](CCCC)NC(=O)[C@H](Cc4ccccc4F)NC1=O)(C2)C3 [compound 404, cyclo(FLac-NMeAbu-3Pal-Nle-Phe2F-Nle-NMe3Pal-amBCP)] (cyclo([3Pal][Nle][Phe(2-F)][Nle][NMe3Pal][X1][PhLac][NMeAbu]))	31
CCCCC[C@@H]1NC(=O)[C@H](Cc2ccc(OC)cc2)NC(=O)[C@H](CC2CCC2)NC(=O)[C@H](Cc2ccc(NC(=N)N)cc2)NC(=O)CN(CCCS(C)(=O)=O)C(=O)[C@H](Cc2ccccc2)NC(=O)CSC[C@@](C)(C(N)=O)NC(=O)[C@H](Cc2ccccc2)N(C)C1=O [compound 389, cyclo(F-Mspg-Phe4Gn-cBuA-TyrOMe-Ahp-NMeF-aMeCl-ClAc)] ({CH2CO}-F[X32][Phe(4-guanidino)][Cba]Y(Me)[Ahp(2)][NMeF][αMeC]-NH2; thioether N-8)	> 50.8
CCCCC[C@@H]1NC(=O)[C@H](Cc2ccc(OC)cc2)NC(=O)[C@H](CC2CCC2)NC(=O)[C@H](Cc2cccnc2)NC(=O)[C@H](CCCNC(=N)N)NC(=O)[C@H](Cc2ccccc2)NC(=O)CSC[C@@](C)(C(N)=O)NC(=O)[C@H](Cc2cnco2)N(C)C1=O [compound 379, cyclo(F-R-3Pal-cBuA-TyrOMe-Ahp-NMeAla5Oxa-aMeCl-ClAc)] ({CH2CO}-FR[3Pal][Cba]Y(Me)[Ahp(2)][X20][αMeC]-NH2; thioether N-8)	> 50.8
CCCC[C@@H]1NC(=O)[C@H](Cc2cccnc2)NC(=O)[C@H](CCCn2ccnc2)N(C)C(=O)[C@H](Cc2ccccc2)OC(=O)C23CC(CNC(=O)[C@H](Cc4ccccc4)N(C)C(=O)[C@H](CCCC)NC(=O)[C@H](Cc4ccccc4F)NC1=O)(C2)C3 [compound 233, cyclo(FLac-NMeNvalmid-3Pal-Nle-Phe2F-Nle-NMeF-amBCP)] (cyclo([3Pal][Nle][Phe(2-F)][Nle][NMeF][X1][PhLac][NMeNva(5-imidazol-1-yl)]))	5.16
CCCC[C@@H]1NC(=O)[C@H](Cc2cccnc2)NC(=O)[C@H](C)N(C)C(=O)[C@H](Cc2cccnc2)NC(=O)C23CC(CNC(=O)[C@H](Cc4cccnc4)N(C)C(=O)[C@H](CCCC)NC(=O)[C@H](Cc4ccccc4F)NC1=O)(C2)C3 [compound 163, cyclo(3Pal-NMeA-3Pal-Nle-Phe2F-Nle-NMe3Pal-amBCP)] (cyclo([3Pal][NMeA][3Pal][Nle][Phe(2-F)][Nle][NMe3Pal][X1]))	> 50.8
C[C@H]1C(=O)N[C@@H](Cc2cccnc2)C(=O)N[C@@H](CC2CC2)C(=O)N[C@@H](Cc2ccccc2F)C(=O)N[C@@H](CCC(C)(F)F)C(=O)N(C)[C@@H](Cc2ccccc2)C(=O)NCC23CC(C2)(C3)C(=O)O[C@@H](Cc2ccccc2)C(=O)N1C [compound 289, cyclo(FLac-NMeA-3Pal-cPrA-Phe2F-Nle3F2-NMeF-amBCP)] (cyclo([3Pal][Ala(cPr)][Phe(2-F)][Nle(5,5-F2)][NMeF][X1][PhLac][NMeA]))	1.07
C[C@H]1C(=O)N[C@@H](Cc2cncnc2)C(=O)N[C@@H](CC2CCC2)C(=O)N[C@@H](Cc2ccccc2F)C(=O)N[C@@H](CCC(C)(C)F)C(=O)N(C)[C@@H](Cc2ccccc2)C(=O)NCC23CC(C2)(C3)C(=O)O[C@@H](Cc2ccccc2)C(=O)N1C [compound 225, cyclo(FLac-NMeA-PyrimAla-cBuA-Phe2F-hL3F-NMeF-amBCP)] (cyclo([Cba][Phe(2-F)][X11][NMeF][X1][PhLac][NMeA][Ala(pyrimidin-5-yl)]))	0.674
C[C@H]1C(=O)N[C@@H](Cc2cncnc2)C(=O)N[C@@H](CC2CC2)C(=O)N[C@@H](Cc2ccncc2Cl)C(=O)N[C@@H](CCC(C)(C)F)C(=O)N(C)[C@@H](Cc2ccccc2)C(=O)NCC23CC(C2)(C3)C(=O)O[C@@H](Cc2ccccc2)C(=O)N1C [compound 299, cyclo(FLac-NMeA-PyrimAla-cPrA-4Pal2Cl-hL3F-NMeF-amBCP)] (cyclo([Ala(cPr)][X24][X11][NMeF][X1][PhLac][NMeA][Ala(pyrimidin-5-yl)]))	> 50.8
CCCC[C@@H]1NC(=O)[C@H](Cc2cccnc2)NC(=O)[C@H](CCCF)N(C)C(=O)[C@H](Cc2ccccc2)OC(=O)C23CC(CNC(=O)[C@H](Cc4cccnc4)N(C)C(=O)[C@H](CCCC)NC(=O)[C@H](Cc4ccccc4F)NC1=O)(C2)C3 [compound 239, cyclo(FLac-NMeNvaF-3Pal-Nle-Phe2F-Nle-NMe3Pal-amBCP)] (cyclo([3Pal][Nle][Phe(2-F)][Nle][NMe3Pal][X1][PhLac][X35]))	20.7
Cc1cccc(C[C@H]2C(=O)NCC34CC(C3)(C4)C(=O)O[C@@H](Cc3ccccc3)C(=O)N(C)[C@@H](C)C(=O)N[C@@H](Cc3cncnc3)C(=O)N[C@@H](CC3CC3)C(=O)N[C@@H](Cc3ccccc3F)C(=O)N[C@@H](CCC(C)(C)F)C(=O)N2C)c1 [compound 274, cyclo(FLac-NMeA-PyrimAla-cPrA-Phe2F-hL3F-NMePhe3Me-amBCP)] (cyclo([Ala(cPr)][Phe(2-F)][X11][NMePhe(3-Me)][X1][PhLac][NMeA][Ala(pyrimidin-5-yl)]))	0.604
CC(C)CC[C@@H]1NC(=O)[C@H](Cc2c(F)cncc2F)NC(=O)[C@H](CC2CC2)NC(=O)[C@H](Cc2cncnc2)NC(=O)[C@H](C)N(C)C(=O)[C@H](Cc2ccccc2)OC(=O)C23CC(CNC(=O)[C@H](Cc4ccccc4)N(C)C1=O)(C2)C3 [compound 292, cyclo(FLac-NMeA-PyrimAla-cPrA-4Pal26F2-hL-NMeF-amBCP)] (cyclo([Ala(cPr)][X14][hLeu][NMeF][X1][PhLac][NMeA][Ala(pyrimidin-5-yl)]))	14.5
CC(C)CC[C@@H]1NC(=O)[C@H](Cc2ccccc2F)NC(=O)[C@H](CC2CCC2)NC(=O)[C@H](Cc2cncnc2)NC(=O)[C@H](C)N(C)C(=O)[C@H](Cc2ccccc2)OC(=O)C23CC(CNC(=O)[C@H](Cc4ccccc4)N(C)C1=O)(C2)C3 [compound 134, cyclo(FLac-NMeA-PyrimAla-cBuA-Phe2F-hL-NMeF-amBCP)] (cyclo([Cba][Phe(2-F)][hLeu][NMeF][X1][PhLac][NMeA][Ala(pyrimidin-5-yl)]))	0.33
CCCC[C@@H]1NC(=O)[C@H](Cc2ccc(CN)cc2)NC(=O)[C@H](CCCNC(=N)N)NC(=O)[C@H](Cc2cccc3ccccc23)NC(=O)CSC[C@](C)(C(=O)O)NC(=O)[C@H](Cc2ccccc2)N(C)C(=O)[C@H](CCCC)NC(=O)[C@H](Cc2ccc(O)cc2)NC1=O [compound 144, cyclo(1Nal-R-Phe4CH2NH2-Nle-Y-Nle-NMeF-daMeC-ClAc)] ({CH2CO}-[1Nal]R[Phe(4-CH2NH2)][Nle]Y[Nle][NMeF][d(αMeC)]-OH; thioether N-8)	> 50.8
CCCCC[C@@H]1NC(=O)[C@H](Cc2ccc(OC)cc2)NC(=O)[C@H](CC2CCCC2)NC(=O)[C@H](Cc2ccc(NC(=N)N)cc2)NC(=O)[C@H](CCCNC(=N)N)NC(=O)[C@H](Cc2ccccc2)NC(=O)CSC[C@@](C)(C(N)=O)NC(=O)[C@H](Cc2ccccc2)N(C)C1=O [compound 366, cyclo(F-R-Phe4Gn-cPeA-TyrOMe-Ahp-NMeF-aMeCl-ClAc)] ({CH2CO}-FR[Phe(4-guanidino)][Ala(cPent)]Y(Me)[Ahp(2)][NMeF][αMeC]-NH2; thioether N-8)	12.2
C[C@H]1C(=O)N[C@@H](Cc2cncnc2)C(=O)N[C@@H](CC2CC2)C(=O)N[C@@H](Cc2ccccc2F)C(=O)N[C@@H](CCC(C)(C)F)C(=O)N(C)[C@@H](Cc2ccccc2)C(=O)NCC23CC(C2)(C3)C(=O)C[C@@H](Cc2ccccc2)C(=O)N1C [compound 273, cyclo(CPhe-NMeA-PyrimAla-cPrA-Phe2F-hL3F-NMeF-amBCP)] (cyclo([Ala(cPr)][Phe(2-F)][X11][NMeF][X34][NMeA][Ala(pyrimidin-5-yl)]))	1.23
CCCCC[C@@H]1NC(=O)[C@H](Cc2ccc(OC)cc2)NC(=O)[C@H](CC2CCC2)NC(=O)[C@H](Cc2ccc(=O)[nH]c2)NC(=O)[C@H](CCCNC(=N)N)NC(=O)[C@H](Cc2ccccc2)NC(=O)CSC[C@@](C)(C(N)=O)NC(=O)[C@H](Cc2ccccc2)N(C)C1=O [compound 369, cyclo(F-R-4CO3Pal-cBuA-TyrOMe-Abp-NMeF-aMeCl-ClAc)]	> 50.8
CCCC[C@@H]1NC(=O)[C@H](Cc2cnn(C)c2)NC(=O)[C@H](C)N(C)C(=O)[C@H](Cc2ccccc2)OC(=O)C23CC(CNC(=O)[C@H](Cc4cccnc4)N(C)C(=O)[C@H](CCCC)NC(=O)[C@H](Cc4ccccc4F)NC1=O)(C2)C3 [compound 400, cyclo(FLac-NMeA-Ala4PyzlMe-Nle-Phe2F-Nle-NMe3Pal-amBCP)] (cyclo([NMe3Pal][X1][PhLac][NMeA][X26][Nle][Phe(2-F)][Nle]))	31.4
Cc1cccc(C[C@H]2C(=O)NCC34CC(C3)(C4)C(=O)O[C@@H](Cc3ccccc3)C(=O)N(C)[C@@H](C)C(=O)N[C@@H](Cc3cncnc3)C(=O)N[C@@H](CC3CC3)C(=O)N[C@@H](Cc3ccccc3F)C(=O)N[C@@H](CCC3CC3)C(=O)N2C)c1 [compound 334, cyclo(FLac-NMeA-PyrimAla-cPrA-Phe2F-hcPrA-NMePhe3Me-amBCP)] (cyclo([Ala(cPr)][Phe(2-F)][X31][NMePhe(3-Me)][X1][PhLac][NMeA][Ala(pyrimidin-5-yl)]))	0.224
CCCC[C@@H]1NC(=O)[C@H](Cc2cncnc2)NC(=O)[C@H](C)N(C)C(=O)[C@H](Cc2ccccc2)OC(=O)C23CC(CNC(=O)[C@H](Cc4cccnc4)N(C)C(=O)[C@H](CCCC)NC(=O)[C@H](Cc4ccccc4F)NC1=O)(C2)C3 [compound 237, cyclo(FLac-NMeA-PyrimAla-Nle-Phe2F-Nle-NMe3Pal-amBCP)] (cyclo([NMe3Pal][X1][PhLac][NMeA][Ala(pyrimidin-5-yl)][Nle][Phe(2-F)][Nle]))	13.4
C[C@H]1C(=O)N[C@@H](Cc2cccnc2)C(=O)N[C@@H](CC2CCC2)C(=O)N[C@@H](Cc2ccccc2F)C(=O)N[C@@H](CCC(C)(F)F)C(=O)N(C)[C@@H](Cc2cncc(F)c2)C(=O)NCC23CC(C2)(C3)C(=O)O[C@@H](Cc2ccccc2)C(=O)N1C [compound 285, cyclo(FLac-NMeA-3Pal-cBuA-Phe2F-Nle3F2-NMe3Pal5F-amBCP)] (cyclo([3Pal][Cba][Phe(2-F)][Nle(5,5-F2)][NMe3Pal(5-F)][X1][PhLac][NMeA]))	5.78

From patent US20260001914A1, “MACROCYCLIC PEPTIDES TARGETING KRAS” (Merck Sharp & Dohme LLC, priority 2022, published 2026)
